The values below come from ChEMBL document CHEMBL1201862, “PubChem BioAssay data set” (2004).

What all share (assay): inhibition of tumour cell growth, NCI panel, 48 h
Experiment [1] has as its system CCRF-CEM.
Experiment [2] relates to HCT-15.
Experiment [3] concerns M14.
In experiment [4] the test system is MCF7.
The subject of experiment [5] is MDA-N.
For experiment [6], the system named is Malme-3M.
Experiment [7] concerns OVCAR-3.
Experiment [8] has as its system OVCAR-5.
Experiment [9] deals with OVCAR-8.
The test system of experiment [10] is SF-268.
Experiment [11] relates to SF-295.
Experiment [12] relates to SF-539.
For experiment [13], the system named is SK-MEL-2.
Experiment [14] has as its system SW-620.
Experiment [15] concerns TK-10.
In experiment [16] the test system is UACC-257.
Experiment [17] concerns HCT-116.
In experiment [18] the test system is KM12.
For experiment [19], the system named is SK-MEL-5.
The test system of experiment [20] is SK-OV-3.

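Following 48 hours of exposure in 96-well plates, responses at five concentrations were used to interpolate endpoints linearly. GI50 is the concentration that inhibits growth by half.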 Calls of active or inactive are those of the source. No stated cut-off is given here; in the data, active = GI50 up to about 1.1 µM and inactive = higher. Where only a bound is given, the exact number is not on record here.

On to `O=C(O)c1cc(/C=C/c2cc(O)ccc2O)ccc1O`, for which the GI50 was > 10 µM (inactive) in experiment [1]; over 10 µM in experiment [2]; > 10 µM (inactive) in [3]; 3.91 µM (inactive) in [4]; 3.43 µM (inactive) in experiment [5]; > 10 µM (inactive) in [6]. Also, the GI50 in [7], in experiment [8], in experiment [9], in experiment [10], in [11] and in experiment [12] was > 10 µM (inactive) throughout. In addition, the GI50 in [13], in experiment [14], in [15] and in experiment [16] was > 10 µM (inactive) in each case.
As to `O=C1CSC(c2ccccc2[N+](=O)[O-])N1c1ccc(-n2c(-c3ccccc3)nc3ccccc3c2=O)cc1` (stereo not given), the GI50 was 41.1 µM (inactive) in experiment [1]; 37.8 µM (inactive) in experiment [17]; 42.3 µM in [2]; 48.5 µM (inactive) in [18]; 32.4 µM (inactive) in experiment [4]; > 100 µM (inactive) in [5]. Besides, the GI50 is 39.8 µM (inactive) in experiment [6]; 79.6 µM (inactive) in experiment [7]; > 100 µM (inactive) in experiment [8]; 40.4 µM (inactive) in experiment [9]; 46.9 µM (inactive) in [10]; 24.5 µM (inactive) in experiment [11]. The GI50 in [12] was 59 µM (inactive); in experiment [13], 55.8 µM (inactive); in experiment [19], 70.5 µM (inactive); in experiment [20], 12.5 µM (inactive); in experiment [14] it was 64.3 µM (inactive); in experiment [15] it was 29.6 µM (inactive). Also, the GI50 in experiment [16] is > 100 µM (inactive).
Consider `Cn1c2c(c3ccccc31)CC(=S)N1CCCC(CC2O)C1` (stereo not given), for which the GI50 in experiment [17] was > 100 µM (inactive); in experiment [2] it was over 100 µM; in experiment [18], > 100 µM (inactive); in experiment [4], > 100 µM (inactive); in [5] it was > 100 µM (inactive); in experiment [6], > 100 µM (inactive). Also, the GI50 in [9], in experiment [10], in experiment [11], in experiment [12], in experiment [13] and in experiment [19] was > 100 µM (inactive) each time. Besides, the GI50 in experiment [20], in [14], in [15] and in experiment [16] was > 100 µM (inactive) each time.
Turning to `Cc1oc2c(c1C)S(=O)(=O)C(C#N)=CN2`, the GI50 in [17] was > 100 µM (inactive); in experiment [2], over 100 µM; in experiment [18], > 100 µM (inactive); in experiment [3], > 100 µM (inactive); in [4], > 100 µM (inactive); in [5] it was > 100 µM (inactive). In addition, the GI50 in [6] is 42.2 µM (inactive); in experiment [7] it was > 100 µM (inactive); in experiment [8], > 100 µM (inactive); in [9], > 100 µM (inactive); in experiment [10] it was > 100 µM (inactive); in experiment [11], > 100 µM (inactive). The GI50 in experiment [12], in experiment [13], in experiment [19], in experiment [20], in experiment [14] and in experiment [15] was > 100 µM (inactive) throughout. Besides, the GI50 in experiment [16] is > 100 µM (inactive).
Regarding `C/C=C1\CNC1C(=O)O` (stereo not given), the GI50 was > 100 µM (inactive) in experiment [1]; > 100 µM (inactive) in experiment [17]; over 100 µM in experiment [2]; > 100 µM (inactive) in experiment [4]; > 100 µM (inactive) in experiment [5]; > 100 µM (inactive) in experiment [6]. Besides, the GI50 in experiment [7], in [8], in experiment [9], in experiment [10], in experiment [11] and in experiment [12] was > 100 µM (inactive) throughout. Also, the GI50 in experiment [13], in experiment [19], in [20], in experiment [14], in [15] and in [16] was > 100 µM (inactive) throughout.
Regarding `O=C(CCCCCC(=O)N1CC(CCl)c2ccc([N+](=O)[O-])cc21)N1CC(CCl)c2ccc([N+](=O)[O-])cc21` (stereo not given), the GI50 was 91.4 µM (inactive) in experiment [1]; > 100 µM (inactive) in [17]; over 100 µM in experiment [2]; > 100 µM (inactive) in experiment [18]; > 100 µM (inactive) in experiment [3]; 36.9 µM (inactive) in experiment [4]. Besides, the GI50 in [5] was > 100 µM (inactive); in experiment [7], > 100 µM (inactive); in experiment [8], > 100 µM (inactive); in [9] it was > 100 µM (inactive); in experiment [10], > 100 µM (inactive); in experiment [11] it was 87.1 µM (inactive). Besides, the GI50 in experiment [12] was > 100 µM (inactive); in experiment [13], > 100 µM (inactive); in experiment [19] it was 52.5 µM (inactive); in experiment [20] it was > 100 µM (inactive); in experiment [14] it was > 100 µM (inactive); in experiment [15], > 100 µM (inactive). The GI50 in experiment [16] was > 100 µM (inactive).
Take `CC(=O)O[C@@H]1[C@@H](C)[C@]2(CC(c3ccoc3)OC2O)C2CCC3O[C@]3(C)[C@]2(C)[C@@H]1OC(C)=O` (stereo not given in full): the GI50 in [1] was 18.2 µM (inactive); in experiment [17] it was 33.7 µM (inactive); in experiment [2] it was 25.4 µM; in experiment [18], 23.8 µM (inactive); in experiment [3], 82.6 µM (inactive); in experiment [4], 41.5 µM (inactive). Besides, the GI50 is 42.1 µM (inactive) in experiment [5]; 42 µM (inactive) in experiment [7]; > 100 µM (inactive) in [8]; 37.2 µM (inactive) in experiment [9]; 91 µM (inactive) in experiment [10]; 71.6 µM (inactive) in experiment [11]. Moreover, the GI50 in experiment [12] was 22.7 µM (inactive); in [13] it was 57.4 µM (inactive); in experiment [19] it was 25.4 µM (inactive); in experiment [20], > 100 µM (inactive); in [14], 36.4 µM (inactive); in experiment [15], 47.5 µM (inactive). Besides, in [16], the GI50 was 29.4 µM (inactive).
`Cc1cc(O)c2c(c1)C[C@@H](O)C1=C2C(=O)c2c(O)ccc(OC3CC(O)C(OC4CC(OC5CCC(OC6CC(O)C(OC7CC(OC8CCC(O)C(C)O8)C(O)C(C)O7)C(C)O6)C(C)O5)C(O)C(C)O4)C(C)O3)c2C1=O` (stereo not given in full): the GI50 is 0.0531 µM (active) in [1]; 0.0492 µM (active) in experiment [17]; 0.0684 µM in [2]; 0.0998 µM (active) in [18]; 0.0789 µM (active) in experiment [3]; 0.324 µM (active) in [4]. The GI50 in [5] was 0.155 µM (active); in experiment [6], 0.0516 µM (active); in experiment [7] it was 0.0641 µM (active); in [8] it was 0.128 µM (active); in [9] it was 0.0224 µM (active); in experiment [10], 0.0243 µM (active). The GI50 in experiment [11] was 0.0441 µM (active); in [12] it was 0.0716 µM (active); in [13], 0.0577 µM (active); in experiment [19], 0.0879 µM (active); in [14], 0.0381 µM (active); in experiment [15] it was 0.184 µM (active). Besides, the GI50 in experiment [16] was 0.11 µM (active).
